Among the test systems are KM20L2 colon; HL-60(TB) leukemia; LXFL 529 NSCLC; RPMI-8226 leukemia; ACHN renal; EKVX NSCLC; DMS 273 small cell lung; U251 CNS; MALME-3M melanoma; SNB-19 CNS; MCF7 breast.
Common to all, as to experiment: NCI-60 cell line screen, 48 h

Where “and” joins values, the source holds several entries; their conditions need not be identical. Identical values can stand only once.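 Five concentrations, 48 hours, 96-well plates. Abbreviation: GI50, concentration required for 50% inhibition of growth. TGI: total growth inhibition.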 Where a SMILES comes first, the peptide text is derived from it. [ ]: non-standard residue; d: D form. The star is where a group is joined. ξ: configuration not given here. Propanoyl(3-(4-MeO-Ph)) = COc1ccc(CCC(=O)*)cc1; Thr(3ξ) = CC(O)[C@H](N)C(=O)O; dNMeL = CN[C@H](CC(C)C)C(=O)O; ξLac = CC(O)C(=O)O

The source of these data is PubChem BioAssay (NCI).

Take `Nc1nn(CC(O)CO)c(=O)s1` (centres undefined): the TGI with KM20L2 colon, in the assay on HL-60(TB) leukemia, in the assay with LXFL 529 NSCLC, with RPMI-8226 leukemia, in the assay on ACHN renal and in the assay on EKVX NSCLC was greater than 100 µM in each case. Also, the TGI in the assay on DMS 273 small cell lung, in the assay with U251 CNS, in the assay with MALME-3M melanoma and with SNB-19 CNS was greater than 100 µM each time.
With `C=CC[N+](CCO)(CCO)CCCCCCCCCCCCCCCCCC`, the TGI with KM20L2 colon worked out at 17.1 µM; in the assay with HL-60(TB) leukemia it was 2.51 µM; in the assay with RPMI-8226 leukemia, 5.45 µM; in the assay on EKVX NSCLC, 47.7 µM; with DMS 273 small cell lung it was 5.83 µM; with U251 CNS, 4.48 µM. Besides, the TGI in the assay with MCF7 breast is greater than 44.8 µM; in the assay on MALME-3M melanoma it was 31.1 µM; in the assay on SNB-19 CNS, 35.3 µM.
As for `N#Cc1ccc(Nc2cnc3ccc(N)cc3n2)cc1`, the TGI in the assay on KM20L2 colon, in the assay on HL-60(TB) leukemia, in the assay on LXFL 529 NSCLC, with RPMI-8226 leukemia, in the assay on ACHN renal and in the assay with EKVX NSCLC was greater than 100 µM throughout. The TGI in the assay on DMS 273 small cell lung, in the assay on U251 CNS, in the assay on MALME-3M melanoma and in the assay on SNB-19 CNS was greater than 100 µM each time.
For `C[C@H](N)C(=O)N[C@@H]1[C@H]2C(=C(O)C[C@@H](O)[C@@H]2O)C(=O)O[C@@H]1C`, the TGI in the assay with KM20L2 colon, in the assay with HL-60(TB) leukemia, in the assay on RPMI-8226 leukemia, in the assay on EKVX NSCLC, in the assay on DMS 273 small cell lung and in the assay with U251 CNS was greater than 100 µM in each case. Besides, the TGI in the assay on MCF7 breast, in the assay with MALME-3M melanoma and in the assay on SNB-19 CNS was greater than 100 µM in each case.
For the compound `O=C1C2=C(CCCCC2)C2CCCCC12O` (centres undefined), the TGI with KM20L2 colon, with HL-60(TB) leukemia, in the assay with LXFL 529 NSCLC, in the assay with RPMI-8226 leukemia, in the assay with ACHN renal and in the assay with EKVX NSCLC was greater than 100 µM each time. Moreover, the TGI in the assay with DMS 273 small cell lung, in the assay on U251 CNS, with MALME-3M melanoma and in the assay with SNB-19 CNS was greater than 100 µM throughout.
For `C[C@H](CN1CC(=O)NC(=O)C1)N1CC(=O)NC(=O)C1`, the TGI with KM20L2 colon, in the assay on RPMI-8226 leukemia, in the assay with EKVX NSCLC, in the assay with DMS 273 small cell lung, in the assay with U251 CNS and with MCF7 breast was greater than 100 µM in each case. For the same compound, the TGI with MALME-3M melanoma and with SNB-19 CNS was greater than 100 µM each time.
For `C=C1C(=O)O[C@@H]2OC3(C)CCC4C(C)CCC1C42OO3` (some centres undefined), the GI50 in the assay on KM20L2 colon is 11.1 µM; with HL-60(TB) leukemia, 1.18 µM; in the assay with RPMI-8226 leukemia, 0.573 µM; in the assay on U251 CNS, 8.18 µM; in the assay with MCF7 breast, 2.2 µM; with MALME-3M melanoma, 4.13 µM. In the assay with SNB-19 CNS, the GI50 is 12.6 µM. In addition, the TGI in the assay with KM20L2 colon was 24.1 µM; in the assay on HL-60(TB) leukemia, 3.55 µM and 2 µM; in the assay on EKVX NSCLC it was 24.7 µM; with DMS 273 small cell lung it was 14.2 µM and 13.2 µM; in the assay with U251 CNS it was 21.2 µM and 16.8 µM; in the assay with MCF7 breast, 11.5 µM and 15 µM. Besides, in the assay with SNB-19 CNS, the TGI is 26.5 µM and 27.9 µM.
Regarding `O=C1OC(c2ccc(Cl)cc2)(c2ccc(Cl)cc2)c2c1ccc1ccccc21`, the TGI in the assay on KM20L2 colon, in the assay with HL-60(TB) leukemia, in the assay with LXFL 529 NSCLC, in the assay with RPMI-8226 leukemia, in the assay with ACHN renal and with EKVX NSCLC was greater than 100 µM each time. Further, the TGI with DMS 273 small cell lung, in the assay with U251 CNS, in the assay with MALME-3M melanoma and in the assay with SNB-19 CNS was greater than 100 µM throughout.
As to `N/C(=N\N=C\c1cc2c(cc1Cl)OCO2)NO`, the TGI is greater than 100 µM in the assay with KM20L2 colon; 41.7 µM in the assay with HL-60(TB) leukemia; greater than 72.8 µM in the assay with RPMI-8226 leukemia; greater than 100 µM in the assay on EKVX NSCLC; greater than 77.8 µM in the assay with DMS 273 small cell lung; greater than 100 µM in the assay on U251 CNS. The TGI in the assay on MCF7 breast is greater than 100 µM; in the assay with MALME-3M melanoma it was greater than 100 µM; in the assay with SNB-19 CNS, greater than 45.4 µM.
With `CCCCCCCC(=O)OCC(C[As](=O)(O)O)OC(=O)CCCCCCC` (centres undefined), the TGI with KM20L2 colon is 30.7 µM; in the assay with HL-60(TB) leukemia, 38.9 µM; in the assay with LXFL 529 NSCLC, 26.3 µM; with RPMI-8226 leukemia, greater than 100 µM; in the assay on ACHN renal it was 30.6 µM; in the assay on EKVX NSCLC, 33.8 µM. Besides, the TGI in the assay with DMS 273 small cell lung is 27.4 µM; in the assay on U251 CNS, 28.2 µM; in the assay on MALME-3M melanoma it was 28.5 µM; in the assay on SNB-19 CNS, 28.2 µM.
For the compound `COc1cccc2c1-c1c(OC)cccc1SS2`, the TGI in the assay on HL-60(TB) leukemia was 7.35 µM; in the assay with RPMI-8226 leukemia, 59.2 µM; in the assay on ACHN renal it was greater than 100 µM; in the assay with EKVX NSCLC, 31.4 µM; in the assay on U251 CNS, 46.8 µM; in the assay with MCF7 breast it was greater than 100 µM. Further, the figures for the TGI in the assay on MALME-3M melanoma and in the assay on SNB-19 CNS were 52 µM and 76.7 µM, respectively.
Take `COc1nc2ccc(CNc3ccc(C(=O)O)cc3)cc2nc1OC`: the TGI in the assay on HL-60(TB) leukemia, with RPMI-8226 leukemia, in the assay on ACHN renal, in the assay on EKVX NSCLC, in the assay with U251 CNS and in the assay with MCF7 breast was greater than 10 µM in each case. Further, the TGI in the assay with MALME-3M melanoma and in the assay on SNB-19 CNS was greater than 10 µM throughout.
In the case of `O=C(CCc1ccc(O)c(O)c1)NCCc1ccc(O)c(O)c1`, the TGI in the assay with HL-60(TB) leukemia was greater than 100 µM; in the assay on RPMI-8226 leukemia, greater than 100 µM; with ACHN renal it was greater than 100 µM; with EKVX NSCLC it was greater than 100 µM; with U251 CNS, 31 µM; in the assay on MCF7 breast it was 45.4 µM. Besides, the TGI with MALME-3M melanoma and with SNB-19 CNS was greater than 100 µM each time.
`Cc1c(O)c(=O)ccn1CCc1c[nH]c2ccccc12`: the TGI in the assay with HL-60(TB) leukemia was 53.3 µM; with RPMI-8226 leukemia, 29.8 µM; with ACHN renal it was 23.5 µM; in the assay on EKVX NSCLC, 91.7 µM; in the assay with U251 CNS, greater than 100 µM; with MCF7 breast, 33.2 µM. Also, the figures for the TGI in the assay on MALME-3M melanoma and with SNB-19 CNS were 55.4 µM and greater than 100 µM, respectively.
With `CCOc1cc2c(cc1O)CC[C@@H]1[C@@H]2CC[C@]2(C)C(OS(=O)OC3CC[C@@H]4[C@H]5CCc6cc(O)c(OCC)cc6[C@@H]5CC[C@@]34C)CC[C@@H]12` (some centres undefined), the TGI in the assay with HL-60(TB) leukemia was 0.929 µM; with RPMI-8226 leukemia, 13.9 µM; in the assay with ACHN renal it was greater than 81.7 µM; in the assay with EKVX NSCLC, greater than 37.7 µM; in the assay on U251 CNS it was 1.4 µM; with MCF7 breast, 7.01 µM. The TGI in the assay on MALME-3M melanoma is 13.4 µM; in the assay on SNB-19 CNS, 30.4 µM.
Take `COC(=O)C(Cc1ccccc1)NC(=O)c1ccc(CNC(=S)NCc2cccc(CNC(=S)NCc3ccccc3)c2)cc1` (centres undefined): the TGI with HL-60(TB) leukemia, in the assay with RPMI-8226 leukemia, in the assay with ACHN renal, in the assay on EKVX NSCLC, in the assay on U251 CNS and in the assay on MCF7 breast was greater than 62.5 µM each time. Further, the TGI with MALME-3M melanoma and in the assay on SNB-19 CNS was greater than 62.5 µM in each case.
Regarding `COc1ccc(NCc2cnc3nc(N)nc(N)c3c2C)cc1`, the TGI with HL-60(TB) leukemia, in the assay with RPMI-8226 leukemia, in the assay with ACHN renal, in the assay on EKVX NSCLC, in the assay on U251 CNS and in the assay on MCF7 breast was greater than 100 µM in each case. Moreover, the TGI with MALME-3M melanoma and with SNB-19 CNS was greater than 100 µM each time.
Regarding `O=[N+]([O-])c1ccc2nc(/C=C(\O)c3ccccc3)c(/C=C(\O)c3ccccc3)nc2c1`, the GI50 in the assay with HL-60(TB) leukemia is 13.6 µM; with RPMI-8226 leukemia, 5.21 µM. Moreover, the TGI is 52.6 µM in the assay with HL-60(TB) leukemia; 61.7 µM in the assay with RPMI-8226 leukemia; greater than 100 µM in the assay on ACHN renal; greater than 100 µM in the assay on EKVX NSCLC; 22.9 µM in the assay on U251 CNS; greater than 100 µM in the assay on MCF7 breast. The TGI in the assay with MALME-3M melanoma and in the assay with SNB-19 CNS was greater than 100 µM in each case.
As to `Cc1ccc(S(=O)(=O)C2c3nc4ccccc4cc3-c3nc4ccccc4nc32)cc1` (centres undefined), the TGI in the assay with KM20L2 colon, in the assay with HL-60(TB) leukemia, in the assay with LXFL 529 NSCLC, in the assay on RPMI-8226 leukemia, with ACHN renal and in the assay with EKVX NSCLC was greater than 100 µM throughout. The TGI in the assay on DMS 273 small cell lung, in the assay with U251 CNS, in the assay with MALME-3M melanoma and in the assay with SNB-19 CNS was greater than 100 µM each time.
As to `CCNc1cc2c3c(c1)CCCN3CCC2`, the TGI in the assay on HL-60(TB) leukemia came to 35 µM; with RPMI-8226 leukemia, 57.1 µM; in the assay with ACHN renal it was 63.1 µM; in the assay on EKVX NSCLC, 48.4 µM; in the assay on U251 CNS, 24.7 µM; in the assay with MCF7 breast, 62.9 µM. Further, the TGI turned out to be 44.6 µM in the assay with MALME-3M melanoma and 33 µM in the assay on SNB-19 CNS.
For the compound `CC(O)c1cc2c(s1)C(=O)c1scc(C(C)O)c1C2=O` (centres undefined), the TGI was greater than 100 µM with HL-60(TB) leukemia; 0.626 µM in the assay on RPMI-8226 leukemia; 2.47 µM in the assay on ACHN renal; 2.93 µM in the assay on EKVX NSCLC; 4.07 µM in the assay with U251 CNS; 3.01 µM in the assay with MCF7 breast. Besides, the TGI turned out to be 0.35 µM with MALME-3M melanoma and 1.66 µM with SNB-19 CNS.
With `COC(=O)[C@@H](NC(=O)[C@@H](CC(C)C)N(C)C(=O)[C@@H]1CCCN1C(=O)C(C)O)C(C)OC(=O)CCc1ccc(OC)cc1` (some centres undefined) (H-[ξLac]P[dNMeL][Thr(3ξ)](Propanoyl(3-(4-MeO-Ph)))-OMe), the TGI in the assay with HL-60(TB) leukemia, in the assay on RPMI-8226 leukemia, in the assay with ACHN renal, with EKVX NSCLC, in the assay on U251 CNS and in the assay on MCF7 breast was greater than 100 µM throughout. Moreover, the TGI in the assay with MALME-3M melanoma and in the assay on SNB-19 CNS was greater than 100 µM each time.
